Columns and labels:
Assay type in all cases: biochemical
monomeric human Aurora-B = monomeric human Aurora-B (Homo sapiens, UniProt Q96GD4); experiment: kinase assay on monomeric human Aurora-B; settings: assay conditions which allow similar signal/noise ratios
[1] = target: T1, wt-Aurora-B^60-361/INCENP^790-847 (Xenopus laevis, UniProt Q6DE08); experiment: radioactive kinase filterbinding assay, IC50 determination; settings: wt enzyme complex at 5 nM; 100 µM ATP, 10 µM substrate peptide; spread printed ± 2 nM
T1 construct: GST (N, cleaved yes); made in house; host or cells: E. coli BL21(DE3) with pUBS520 helper plasmid
Method: (§1) The ATP-KM value for the G96V mutant (83 µM) is similar to the wt enzyme (61 µM). The kinase assays are run in the presence of 100 µM ATP using 10 µM of a substrate peptide (see Materials and Methods).
(§2) Hesperadin is a potent inhibitor of human Aurora-B (Hauf, 2003). To determine whether Hesperadin inhibits also xAurora-B /INCENP complexes, a kinase filterbinding assay is employed for IC50-determinations. Both, the G96V and the wt enzyme complex are used at 5 nM concentration in the assays.
(§3) Purified xAurora-B/INCENP is snap frozen and stored for further use at -80°C in desalting buffer (50 mM Tris/Cl pH 8.0, 150mM NaCl, 0.1mM EDTA, 0.03% Brij-35, 10% glycerol, 1mM DTT). xAurora-B/INCENP is incubated in the presence or absence of a test compound dilutions in DMSO prior to addition of substrate peptide and P33-γ-ATP. Samples without a test compound or without substrate peptide are used as high or low-controls, respectively. IC50 values are determined using Graph Pad Prism software.
(§4) For the filter-binding kinase assay (reaction volume 50 ul /well), 96-well PP-Microplates (Greiner, 655 201) are used. To 10µl compound in 25% DMSO are added 30µl PROTEIN-MIX (166 µM ATP,1x kinase buffer [50mM Tris/Cl pH7.5,25mM MgC12, 25mM NaCl], 10-20 ng xAurora-B/INCENP) followed by an 15 min incubation at room temperature (agitating, 350rpm). […]

[2] = target: T2, G96V-Aurora-B^60-361/INCENP^790-847 (Xenopus laevis, UniProt Q6DE08, G96V); experiment: as above; settings: G96V enzyme complex at 5 nM; 100 µM ATP, 10 µM substrate peptide; spread printed ±13 nM
T2 construct: GST (N, cleaved yes); made in house; host or cells: E. coli BL21(DE3) with pUBS520 helper plasmid
Method: as §1, §2, §3, §4

T2 sequence (Q6DE08 60-361 G96V): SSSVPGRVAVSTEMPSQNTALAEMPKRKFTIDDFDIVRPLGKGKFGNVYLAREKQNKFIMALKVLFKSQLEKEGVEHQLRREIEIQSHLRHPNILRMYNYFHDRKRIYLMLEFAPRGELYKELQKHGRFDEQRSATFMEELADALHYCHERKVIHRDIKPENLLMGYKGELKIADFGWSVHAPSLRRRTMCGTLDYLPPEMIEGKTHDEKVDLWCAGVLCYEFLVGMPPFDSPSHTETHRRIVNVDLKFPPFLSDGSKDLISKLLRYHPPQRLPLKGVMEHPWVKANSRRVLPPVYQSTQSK
T2 sequence (O13024 790-847 partner limits assumed): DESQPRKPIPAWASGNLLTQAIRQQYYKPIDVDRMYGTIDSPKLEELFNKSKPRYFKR
T1 sequence (Q6DE08 60-361): as the sequence (Q6DE08 60-361 G96V) above, with V37G counted along it
T1 sequence (O13024 790-847 partner limits assumed): as the sequence (O13024 790-847 partner limits assumed) above
Sequence of monomeric human Aurora-B (Q96GD4 whole entry): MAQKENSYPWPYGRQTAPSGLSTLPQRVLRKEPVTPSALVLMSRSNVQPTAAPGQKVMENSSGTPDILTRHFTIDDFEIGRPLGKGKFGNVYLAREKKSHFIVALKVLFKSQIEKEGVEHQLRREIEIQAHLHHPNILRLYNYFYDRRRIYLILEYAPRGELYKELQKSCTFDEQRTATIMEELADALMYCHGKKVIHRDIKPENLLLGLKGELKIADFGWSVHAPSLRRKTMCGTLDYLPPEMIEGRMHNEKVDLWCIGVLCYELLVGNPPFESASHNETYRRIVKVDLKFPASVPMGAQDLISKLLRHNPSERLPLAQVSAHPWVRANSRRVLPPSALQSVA

IC50 (monomeric human Aurora-B): 0.044 µM | IC50 [1]: 0.007 µM | IC50 [2]: 0.025 µM
Structure (SMILES): CCS(=O)(=O)Nc1ccc2c(c1)/C(=C(/Nc1ccc(CN3CCCCC3)cc1)c1ccccc1)C(=O)N2 [Hesperadin]

Reference: patent publication EP1715036A1, “Crystal structure of an Aurora-B/INCENP complex” (Boehringer Ingelheim International GmbH, priority 2005, dated 2006)
